According to patent US11578055B2, “Triazacyclododecansulfonamide (“TCD”)-based protein secretion inhibitors” (KEZAR LIFE SCIENCES, priority 2018, dated 2023):
Where two headings read alike, the source gives them in different places.

Columns and labels:
[1] = tested on: PD1 signal sequence plus 10 amino acids fused to Gaussia Luciferase (PD1-ss+10aa/Gaussia Luciferase); assay: Dox Induced PD1-ss-Gluc Assay; format: cell-based; conditions: 24 hr, read-out: 24 hr Dox Inducible PD1ssGluc 293FRT/TO: Mean IC50
Outline: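 Stable Flp-In 293 T-REx line expressing the fusion under tetracycline-inducible control, plated the day before assay. Compound dilutions added with doxycycline and incubated at 37 °C, 5% CO2; unspecified stereocentres mean data refer to stereoisomer mixtures.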

[2] = tested on: full length PD1 (amino acids 1-288) fused to Firefly Luciferase; assay: Dox Induced PD1-FL-Gluc Assay; format: cell-based; conditions: 24 hr, 293FRT/TO; read-out: 24 hr Dox Inducible PD1FLFluc 293FRT/TO: Mean IC50
From the text: FIp-In 293 T-REx™ cells were transfected with pcDNA™5/FRT/TO plasmid inserted with cDNA encoding Firefly Luciferase fused to the 3′ end of cDNA encoding full length PD1 (amino acids 1-288). Transfected cells were selected for resistance to the selectable markers Hygromycin and Blasticidin to create a stable cell line that contained the PD1-FL/Firefly Luciferase cDNA insert whose expression was regulated under the T-REx™ system. The day before assay, cells were trypsinized and plated in 384-well tissue culture plates. The next day, compound dilutions in DMSO/media containing doxycycline were added to the wells and incubated at 37° C., 5% CO2.
For chemical structures that include one or more stereoisomers, but are illustrated without indicating stereochemistry, the assay data refers to a mixture of stereoisomers.

[3] = tested on: full length TNFα (amino acids 1-233) fused to Gaussia Luciferase; assay: Dox Induced TNFα-FL-Gluc Assay; format: cell-based; conditions: 24 hr, read-out: 24 hr Dox Inducible TNFaFLGluc 293FRT/TO: Mean IC50
Outline: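 Stable Flp-In 293 T-REx line expressing doxycycline-inducible full-length TNFα fused to Gaussia luciferase; cells plated the day before, then treated with compound dilutions in doxycycline-containing medium at 37° C, 5% CO2. Unspecified stereocentres mean stereoisomer mixtures were tested.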

[4] = tested on: multiple myeloma cell line NCl-H929; assay: H929 Cell Viability Assay; format: cell-based, human; conditions: Homo sapiens, NCI-H929, 48 h
Outline: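 NCI-H929 myeloma cells in RPMI 1640 with 10% FBS were treated with compound dilutions for 48 h at 37 °C, and viability was then read by CellTiter-Glo luminescence. Compounds drawn without stereochemistry were tested as stereoisomer mixtures.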

[5] = tested on: multiple myeloma cell line U266B1; assay: U266 Cell Viability Assay; format: cell-based, human; conditions: Homo sapiens, U-266, 48 hr
Outline: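 U266B1 myeloma cells in RPMI 1640 with 10% FBS were treated with compound dilutions for 48 h at 37° C, 5% CO2. Viability was read as CellTiter-Glo luminescence. Data for structures drawn without stereochemistry refer to stereoisomer mixtures.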

[6] = In Vitro Microsome Stability Assay (human); format: in vitro ADME
Outline: (§1)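 Species liver microsomes in potassium phosphate buffer were preincubated at 37 °C for 3–5 min with test compound (added from 0.25 mM DMSO stock), then started with NADPH. Samples at 0 and 30 min were quenched with acetonitrile containing internal standard and analysed by LC-MS/MS; % remaining at 30 min used analyte/IS AUC ratios relative to t=0.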

[7] = In Vitro Microsome Stability Assay (mouse); format: in vitro ADME
Outline: as §1

[8] = In Vitro Microsome Stability Assay (rat); format: in vitro ADME
Outline: as §1

[9] = In Vitro Microsome Stability Assay (monkey); format: in vitro ADME
Outline: as §1

[10] = tested on: full length IL-2 (amino acids 1-153) fused to Gaussia Luciferase; assay: Dox Induced IL2-FL-Gluc Assay; format: cell-based; conditions: 24 hr, Dox inducible, 293FRT/TO cells; read-out: 24 hr Dox Inducible IL2FLGluc 293FRT/TO: Mean IC50
Outline: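 Flp-In 293 T-REx stable line expressing full-length IL-2 (aa 1-153) with C-terminal Gaussia luciferase fusion under doxycycline-inducible control. Cells plated the day before; compound dilutions added in DMSO/media containing doxycycline, incubated at 37° C, 5% CO2.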

[11] = tested on: HER3 signal sequence plus 4 amino acids fused to Gaussia Luciferase (HER3-ss+4aa/Gaussia Luciferase); assay: Dox Induced HER3-ss-Gluc Assay; format: cell-based; conditions: 24 hr, doxycycline induced, Flp-In 293 T-REx cells; read-out: 24 hr Dox Inducible Her3(ss + 4) Gluc 293FRT/TO: Mean 1050
Outline: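 Stable Flp-In 293 T-REx line expressing HER3 signal sequence+4aa/Gaussia luciferase under doxycycline-inducible control. Cells plated the day before; compound dilutions added in doxycycline-containing medium and incubated at 37° C, 5% CO2.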

[12] = H929, read-out: 48 hr H929 Viability Celltiter-Glo: Mean EC50
[13] = U266, read-out: 48 hr U266 Viability Celltiter-Glo: Mean EC50
[14] = human liver microsomes, 30 min w/ NADPH
[15] = mouse liver microsomes, 30 min w/ NADPH
[16] = rat liver microsomes, 30 min w/ NADPH
[17] = monkey liver microsomes, 30 min w/ NADPH

| SMILES | IC50 ([1]; 293FRT/TO) [nM] | IC50 [2] [nM] | IC50 ([3]; 293FRT/TO) [nM] | EC50 [4, 12] [nM] | EC50 [5, 13] [nM] | Liver Microsome Stability-% Left after 30 min w/ NADPH (%) Human ([6]; human, 30 min, NADPH) [%] | Liver Microsome Stability-% Left after 30 min w/ NADPH (%) Mouse ([7]; mouse, 30 min, NADPH) [%] | Liver Microsome Stability-% Left after 30 min w/ NADPH (%) Rat ([8]; rat, 30 min, NADPH) [%] | Liver Microsome Stability-% Left after 30 min w/ NADPH (%) Monkey ([9]; monkey, 30 min, NADPH) [%] | IC50 ([1]; Dox inducible, 293FRT/TO cells) [nM] | IC50 ([3]; Dox inducible, 293FRT/TO cells) [nM] | IC50 [10] [nM] | IC50 [11] [nM] | EC50 ([4]; H929, Celltiter-Glo) [nM] | EC50 ([5]; U266, Celltiter-Glo) [nM] | Liver Microsome Stability-% Left after 30 min w/ NADPH (%) Human [6, 14] [%] | Liver Microsome Stability-% Left after 30 min w/ NADPH (%) Mouse [7, 15] [%] | Liver Microsome Stability-% Left after 30 min w/ NADPH (%) Rat [8, 16] [%] | Liver Microsome Stability-% Left after 30 min w/ NADPH (%) Monkey [9, 17] [%] |
| --- | --- | --- | --- | --- | --- | --- | --- | --- | --- | --- | --- | --- | --- | --- | --- | --- | --- | --- | --- |
| C=C1CN(S(=O)(=O)c2ccc(C)cc2)CCCN(CC2CCCCC2)CCCN(S(=O)(=O)c2ccc(C)cc2)C1 [A2] | 345 | 807 | > 25000 | 10100 | > 25000 | 0.04 | 0.09 | 0.59 | 0.09 |  |  |  |  |  |  |  |  |  |  |
| C=C1CN(S(=O)(=O)c2ccc(C)cc2)CCCN(CC2CCCCC2)CCCN(S(=O)(=O)c2ccc(OC)cc2)C1 [A3] | 241 | 638 | 11400 | 5080 | > 25000 | 0.25 | 0.09 | 0.37 | 0.83 |  |  |  |  |  |  |  |  |  |  |
| C[C@H]1CN(S(=O)(=O)c2ccc(N(C)C)cc2)CCCN([C@@H](C)c2ccccc2)CCCN(S(=O)(=O)N2CCc3ccccc3C2)C1 [A205, N,N-dimethyl-4-{[(3S)-3-methyl-9-[(1 S)-1-phenylethyl]-5-(1,2,3,4-tetrahydroisoquinoline-2-sulfonyl)-1,5,9-triazacyclododecan-1-yl]sulfonyl}aniline] |  |  |  |  |  |  |  |  |  | 129 | 1810 | 305 | 230 | 2360 | > 25000 | 37.2 | 38.9 | 38.7 | 31.7 |
| COc1cc(F)ccc1N1CCN(S(=O)(=O)N2CCCN([C@@H](C)C3CCCCC3)CCCN(S(=O)(=O)c3ccc(N(C)C)cc3)C[C@H](C)C2)C[C@H]1C [A207, 4-{[(3S)-9-[(1 S)-1-cyclohexylethyl]-5-{[(3 R)-4-(4-fluoro-2-methoxyphenyl)-3-methylpiperazin-1-yl]sulfonyl}-3-methyl-1,5,9-triazacyclododecan-1-yl]sulfonyl}-N,N-dimethylaniline] |  |  |  |  |  |  |  |  |  | 7.93 | 221 | 10.6 | 18 | 106 | > 25000 | 62.7 | 84.3 | 98.8 | 63.0 |
| COc1ccc([C@@H]2CCCN(S(=O)(=O)N3CCCN(CC4CCCCC4)CCCN(S(=O)(=O)c4ccc(N(C)C)cc4)C[C@H](C)C3)C2)cc1 [A208, 4-{[(3S)-9-(cyclohexylmethyl)-5-{[(3S)-3-(4-methoxyphenyl)piperidin-1-yl]sulfonyl]-3-methyl-1,5,9-triazacyclododecan-1-yl]sulfonyl}-N,N-dimethylaniline] |  |  |  |  |  |  |  |  |  | 343 | > 25000 | 616 | 428 | > 25000 | > 25000 | 23.3 | 51.8 | 68.9 | 37.5 |

More lines, in order of falling IC50 ([1]; Dox inducible, 293FRT/TO cells), values ahead:

| IC50 ([1]; 293FRT/TO) [nM] | IC50 [2] [nM] | IC50 ([3]; 293FRT/TO) [nM] | EC50 [4, 12] [nM] | EC50 [5, 13] [nM] | Liver Microsome Stability-% Left after 30 min w/ NADPH (%) Human ([6]; human, 30 min, NADPH) [%] | Liver Microsome Stability-% Left after 30 min w/ NADPH (%) Mouse ([7]; mouse, 30 min, NADPH) [%] | Liver Microsome Stability-% Left after 30 min w/ NADPH (%) Rat ([8]; rat, 30 min, NADPH) [%] | Liver Microsome Stability-% Left after 30 min w/ NADPH (%) Monkey ([9]; monkey, 30 min, NADPH) [%] | IC50 ([1]; Dox inducible, 293FRT/TO cells) [nM] | IC50 ([3]; Dox inducible, 293FRT/TO cells) [nM] | IC50 [10] [nM] | IC50 [11] [nM] | EC50 ([4]; H929, Celltiter-Glo) [nM] | EC50 ([5]; U266, Celltiter-Glo) [nM] | Liver Microsome Stability-% Left after 30 min w/ NADPH (%) Human [6, 14] [%] | Liver Microsome Stability-% Left after 30 min w/ NADPH (%) Mouse [7, 15] [%] | Liver Microsome Stability-% Left after 30 min w/ NADPH (%) Rat [8, 16] [%] | Liver Microsome Stability-% Left after 30 min w/ NADPH (%) Monkey [9, 17] [%] | SMILES |
| --- | --- | --- | --- | --- | --- | --- | --- | --- | --- | --- | --- | --- | --- | --- | --- | --- | --- | --- | --- |
|  |  |  |  |  |  |  |  |  | 327 | > 25000 | 673 | 498 | > 25000 | > 25000 | 22.6 | 31.8 | 44.7 | 45.7 | COc1cccc([C@@H]2CCCN(S(=O)(=O)N3CCCN(CC4CCCCC4)CCCN(S(=O)(=O)c4ccc(N(C)C)cc4)C[C@H](C)C3)C2)c1 [A209] |
|  |  |  |  |  |  |  |  |  | 203 | > 25000 | 447 | 343 | > 25000 | > 25000 | 47.4 | 76.0 | 54.6 | 55.4 | COc1ccccc1[C@@H]1CCCN(S(=O)(=O)N2CCCN(CC3CCCCC3)CCCN(S(=O)(=O)c3ccc(N(C)C)cc3)C[C@H](C)C2)C1 [A210] |
|  |  |  |  |  |  |  |  |  | 58.4 | 982 | 158 | 134 | 1490 | > 25000 | 48.4 | 62.6 | 58.3 | 49.7 | C[C@H]1CN(S(=O)(=O)c2ccc(N(C)C)cc2)CCCN(CC2CCC(F)CC2)CCCN(S(=O)(=O)N2CCc3cc(Cl)ccc3C2)C1 (stereo partly drawn) [A204, 4-{[(3S)-5-[(6-chloro-1,2,3,4-tetrahydroisoquinolin-2-yl)sulfonyl]-9-[(4-fluorocyclohexyl)methyl]-3-methyl-1,5,9-triazacyclododecan-1-yl]sulfonyl}-N,N-dimethylaniline] |
|  |  |  |  |  |  |  |  |  | 31.3 | 519 | 80.5 | 57.8 | 1650 | > 25000 | 1.77 | 8.31 | 10.1 | 1.77 | CN(C)c1ccc(S(=O)(=O)N2CCCN(CC3CCCCC3)CCCN(S(=O)(=O)N3CCc4cc(Cl)ccc4C3)C[C@H]3CC[C@@H]32)cc1 [B22, 4-{[(1S,12R)-10-[(6-chloro-1,2,3,4-tetrahydroisoquinolin-2-yl]sulfonyl]-6-(cyclohexylmethyl)-2,6,10-triazabicyclo[10.2.0]tetradecan-2-yl]sulfonyl}-N,N-dimethylaniline] |
|  |  |  |  |  |  |  |  |  | 17.4 | 395 | 39 | 38.2 | 657 | > 25000 | 54.7 | 84.3 | 80.5 | 65 | C[C@H]1CN(S(=O)(=O)c2ccc(N(C)C)cc2)CCCN(CC2CCCCC2)CCCN(S(=O)(=O)N2CCN(c3ccc(F)cc3Cl)CC2)C1 [A206, 4-{[(3S)-5-{[4-(2-chloro-4-fluorophenyl)piperazin-1-yl]sulfonyl}-9-(cyclohexylmethyl)-3-methyl-1,5,9-triazacyclododecan-1-yl]sulfonyl}-N,N-dimethylaniline] |
